In patent publication US20090131523A1, “Lipid compositions for the treatment and prevention of proliferative diseases and for the reduction of incidences of mutagenesis and carinogenesis” (Enzymotec Ltd., priority 2007, published 2009):

How the values were obtained:
[1] = tested on: squamous cell carcinoma (SCC); settings: Harris et al. 2005; cited from earlier work
[2] = palmitic acid in yoghurt; Nadathur et al. 1996; cited from earlier work
[3] = tested on: tk locus of L5178Y mouse lymphoma cells; format: cell-based; settings: 10 μg/ml
Description: The MLA assay evaluates the mutagenic potential of the tested oils based on quantitation of forward mutations at the tk locus of L5178Y in mouse lymphoma cells. The mutagenicity of the test agents is indicated by the increase in the number of mutants after treatment. The tk enzyme is responsible for incorporating exogenous thymidine via a salvage pathway, into the cell in the form of thymidine monophosphate. Analogues of thymidine, such as trifluorothymidine (TFT) can also be phosphorylated by tk enzyme, which leads to cell toxicity. Forward mutation at this locus results in a loss of tk activity and subsequent resistance to TFT, which is used as the selective agent to kill wild type cells. Thus the tk mutants are not killed by TFT and are able to survive due to their ability to synthesize […] de novo.
The objective of the MLA assay was to study the inhibitory effect of Fat blend 6 (Table 2) on the incidence of mammalian cell gene mutations. Each group of L5178Y cells was incubated with one of the tested oils, i.e. with Fat blend 6 or with oil containing low palmitic acid (LPO), and the incidence of specific mutations was examined using the MLA assay. The study experiments were performed with a constant concentration of reference mutagen. Additionally, several concentrations of the test items were used. Positive and negative controls were included in the experiment.
Study procedure: 1×10^7 cells/culture (80 cm^2 flasks) were exposed to several concentrations of tested oil in the presence of the mutagen (10 μg/ml MMS) in parallel to the negative and positive controls (Table 6, FIG. 2). Cells were incubated with the tested oil and mutagen for 3-4 hours to induce and increase the efficiency of anti-mutagenesis effect. Following the incubation, the mutagen was removed by centrifugation (400 g, 5 min) and the cells were washed twice. Subsequently the cells were re-suspended in growth medium for an expression period of 4 days. Following expression period, cultures were seeded in selective medium (containing TFT). Cells from each experimental group were seeded in four 96-well plates at a density of 2000 cells/well in selective medium. After an incubation period of 11 days at 37±1° C., 5±0.5% CO2 and 95±5% humidified atmosphere, the number of colony containing/empty wells was scored using microscope. The colonies size and/or morphology were also characterized. The inhibitory effect of the 2 tested oils was evaluated using the following criteria: (a) a decrease of Mutation Frequencies in the presence of tested oil related to the positive control. (b) Decreased occurrence of small colonies (slow growth colonies) indicated by a high large/small colonies ratio was an indication for inhibitory potential clastogenic effects and/or chromosomal aberrations.
The study was conducted based on the Ninth Addendum to OECD Guidelines for Testing of Chemicals, Section 4, No. 476, “In Vitro Mammalian Cell Gene Mutation Test”, adapted 21 Jul. 1997. This type of study was used in Whittaker P, Evaluation of commercial kava extracts and kavalactone standards for mutagenicity and toxicity using the mammalian cell gene mutation assay in L5178Y mouse lymphoma cells, Food Chem. Toxicol. 2007.

**Q.** With `CCCCCC/C=C\CCCCCCCC(=O)O` [palmitoleic acid] as the compound, how does the “association of increasing dietary proportions with squamous cell carcinoma” value [1] read?
**A.** associated with reduced squamous cell carcinoma (SCC)

**Q.** With `CCCCCCCCCCCCCCCC(=O)O` [palmitic acid] as the compound, how does the anti-MNNG activity [2] read?
**A.** exerts anti-N-methyl-N′-nitro-N-nitrosoguanidine (MNNG) activity

**Q.** And the “association of increasing dietary proportions with squamous cell carcinoma” value [1]?
**A.** associated with reduced squamous cell carcinoma (SCC)

**Q.** Which “% change in mutants compare to MMS treat” value [3] does the source give for `COS(C)(=O)=O` [MMS, methyl methane sulfonate] here?
**A.** 100%

**Q.** What about the “Colony Sizing Large/small” value [3] of the same compound?
**A.** 1.53

**Q.** And the “Mutants/10^6 cells” value [3]?
**A.** 489 per 10^6 cells

**Q.** What about the Mutation factor [3] of the same compound?
**A.** 12

**Q.** What about the “relative suspension growth (RSG)” value [3] of the same compound?
**A.** 65.8%
